Results published in patent US8608919B2, “Impedimetric sensor and applications thereof” (Consejo Superior de Investigaciones Científicas, priority 2007, dated 2013).
Converted amounts (≈) assume the structure as drawn.

How the values were obtained:
Format in all cases: binding, rabbits of the New Zealand variety
[1] = system: antiserums produced for sulphonamide-type antibiotics; test: Direct ELISA format with HRP enzymatic tracers of competition haptens (preliminary studies)
Text: Biological molecular receptors (antibodies) were designed and produced to analyse antibiotics from the family of sulfamides. The preparation of the biological receptors was approached by means of the design of immunization haptens using molecular modelling strategies. As a consequence of these studies, the synthesis of 2 haptens or antigens was proposed. One of them (hapten 1) kept the greater part of the structure of the sulfamides, while the second (hapten 2) was only a fragment which conserved the part common to most of the compounds of this family of antibiotics. The two haptens were combined to the HCH (horseshoe crab hemocyanin) protein and to the BSA (bovine serum albumin) protein by using methods described in the literature. The covalent bonding of the haptens or antigens and the quantification of the number of the remainder of antigens bonded to the protein was carried out by means of a mass spectrometer. Following this, rabbits of the New Zealand variety were immunised with these antigens by applying a six-month long immunisation protocol, during which the progress of the immune response was controlled by means of extracting small blood samples.
With the aim of evaluating the avidity of the antiserums produced by the sulphonamide-type antibiotics, it was necessary to establish a competitive-type immunochemical assay. […]

[2] = system: specific sulfamide antiserum (#155); test: Impedimetric immunosensor of the invention, competitive immunoassay calibrated with sulfapyridine; details: Sensor; [Ab] 1/2000; [AT] 0.8 μg/ml (2d-BSA); from four-parameter fit of calibration curve
Description: Before proceeding to the functionalization, the electrodes were cleaned in a solution of 70% absolute ethanol and 30% Milli-Q water. Afterwards, the devices were submerged in a solution of 2.5% NaOH and Milli-Q water for 10 minutes, followed by a rinsing in 100 mL of Milli-Q water, in order to neutralize the action of the NaOH. Finally, the electrodes were cleaned in ethanol and dried in nitrogen current.
The electrodes were introduced into a GPTS [(3-glycidoxipropil) trimethoxisilane] solution with 2.5% ethanol anhydride for three hours, at ambient temperature and with orbital agitation. After this time had passed, the devices were washed in ethanol and dried in nitrogen current. […]
Biological molecular receptors (antibodies) were designed and produced to analyse antibiotics from the family of sulfamides. […] The covalent bonding of the haptens or antigens and the quantification of the number of the remainder of antigens bonded to the protein was carried out by means of a mass spectrometer. […]
Sulfapyridine pattern solutions prepared in PBST (0.64 nM-50000 nM, in PBST) were added to the electrodes (150 μL/electrode), followed by a solution with the specific sulfamide antiserum (#155) obtained (1/2000 in PBST, 150 μL/electrode). […] The reaction was measured in a low conductivity solution. […]

[3] = system: specific sulfamide antiserum; test: ELISA immunoassay, calibration with sulfapyridine; details: [Ab] 1/8000, [AT] 0.625 μg/ml, from four-parameter fit of calibration curve

Row | IC50 [1] | IC50 [2] | IC50 [3] | Structure (SMILES)
1 | ~9 ng/mL (≈ 0.036 µM) |  |  | Nc1ccc(S(=O)(=O)Nc2cnccn2)cc1 [sulfapyrazine]
2 |  | 14 nM | 9.29 nM | Nc1ccc(S(=O)(=O)Nc2ccccn2)cc1 [sulfapyridine]
